Source: doi:10.1101/2025.05.27.25328359, “OSBPL11 is an African-specific locus associated with 25-hydroxyvitamin D concentrations and cardiometabolic health” (medRxiv, 2025)

Molecular target: T1, OSBPL11 (OSBPL11-myc-His) (Homo sapiens, UniProt Q9BXB4)
T1 construct: full length, C-terminal myc-His tag (pcDNA3.1(+)myc/his C), transiently expressed in 293T cells; 100,000 g supernatant (S100) of lysate, not purified
T1 sequence (Q9BXB4 1-747): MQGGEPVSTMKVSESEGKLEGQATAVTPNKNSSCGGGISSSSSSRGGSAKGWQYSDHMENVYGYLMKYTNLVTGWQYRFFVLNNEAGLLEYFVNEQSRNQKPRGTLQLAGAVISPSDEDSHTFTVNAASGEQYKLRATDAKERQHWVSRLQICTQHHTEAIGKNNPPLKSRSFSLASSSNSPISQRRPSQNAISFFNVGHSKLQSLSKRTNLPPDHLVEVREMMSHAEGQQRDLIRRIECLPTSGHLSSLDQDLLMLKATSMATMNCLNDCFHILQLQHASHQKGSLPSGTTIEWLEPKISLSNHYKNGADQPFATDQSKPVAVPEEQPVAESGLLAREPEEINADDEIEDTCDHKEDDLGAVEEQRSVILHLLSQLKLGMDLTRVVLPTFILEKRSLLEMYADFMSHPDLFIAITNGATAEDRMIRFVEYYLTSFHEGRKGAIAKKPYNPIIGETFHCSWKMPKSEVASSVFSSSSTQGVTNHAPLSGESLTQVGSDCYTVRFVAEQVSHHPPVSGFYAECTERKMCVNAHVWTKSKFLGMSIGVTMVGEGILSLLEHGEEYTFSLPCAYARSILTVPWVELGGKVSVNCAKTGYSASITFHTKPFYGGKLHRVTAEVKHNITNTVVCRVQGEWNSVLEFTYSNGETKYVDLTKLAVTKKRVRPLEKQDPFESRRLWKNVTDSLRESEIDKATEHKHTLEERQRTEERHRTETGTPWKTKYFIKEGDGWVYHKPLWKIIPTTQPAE
Assay: [3H]-25-hydroxycholesterol competition binding, charcoal/dextran, S100 lysate
Format: biochemical

Ki: 32 nM
Structure (SMILES): C[C@H](CCCC(C)(C)O)[C@H]1CC[C@H]2[C@@H]3CC=C4C[C@@H](O)CC[C@]4(C)[C@H]3CC[C@]12C [25-hydroxycholesterol]
